According to article PMC3764917 (Journal of medicinal chemistry, 2012):
Counter-ions that a name gives are not always drawn.

Assays:
[1] = humans; cited from earlier work
[2] = target: T1, FAAH (Rattus norvegicus, UniProt P97612); assay: FAAH activity: [3H]anandamide hydrolysis by total rat brain homogenates; assay type: biochemical
T1 sequence (P97612 1-579): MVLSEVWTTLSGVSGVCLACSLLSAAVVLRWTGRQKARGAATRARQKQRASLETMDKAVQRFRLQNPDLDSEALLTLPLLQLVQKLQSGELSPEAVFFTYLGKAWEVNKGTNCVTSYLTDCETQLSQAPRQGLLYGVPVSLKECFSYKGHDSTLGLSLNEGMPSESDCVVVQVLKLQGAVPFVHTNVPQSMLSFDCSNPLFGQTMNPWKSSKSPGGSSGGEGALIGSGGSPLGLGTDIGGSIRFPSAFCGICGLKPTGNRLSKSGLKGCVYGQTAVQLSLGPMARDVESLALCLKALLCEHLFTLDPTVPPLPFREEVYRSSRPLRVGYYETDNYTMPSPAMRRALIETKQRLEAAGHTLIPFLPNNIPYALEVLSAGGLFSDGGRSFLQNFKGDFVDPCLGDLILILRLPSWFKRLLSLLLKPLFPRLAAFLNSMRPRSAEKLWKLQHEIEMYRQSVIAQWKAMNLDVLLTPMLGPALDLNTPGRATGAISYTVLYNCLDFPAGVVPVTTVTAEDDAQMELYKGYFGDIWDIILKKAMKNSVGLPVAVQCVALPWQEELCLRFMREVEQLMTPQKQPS

[3] = target: T2, ovine COX-1 (Ovis aries, UniProt P05979); assay: COX activity, commercial enzyme immunoassay kit
T2 sequence (P05979 25-600): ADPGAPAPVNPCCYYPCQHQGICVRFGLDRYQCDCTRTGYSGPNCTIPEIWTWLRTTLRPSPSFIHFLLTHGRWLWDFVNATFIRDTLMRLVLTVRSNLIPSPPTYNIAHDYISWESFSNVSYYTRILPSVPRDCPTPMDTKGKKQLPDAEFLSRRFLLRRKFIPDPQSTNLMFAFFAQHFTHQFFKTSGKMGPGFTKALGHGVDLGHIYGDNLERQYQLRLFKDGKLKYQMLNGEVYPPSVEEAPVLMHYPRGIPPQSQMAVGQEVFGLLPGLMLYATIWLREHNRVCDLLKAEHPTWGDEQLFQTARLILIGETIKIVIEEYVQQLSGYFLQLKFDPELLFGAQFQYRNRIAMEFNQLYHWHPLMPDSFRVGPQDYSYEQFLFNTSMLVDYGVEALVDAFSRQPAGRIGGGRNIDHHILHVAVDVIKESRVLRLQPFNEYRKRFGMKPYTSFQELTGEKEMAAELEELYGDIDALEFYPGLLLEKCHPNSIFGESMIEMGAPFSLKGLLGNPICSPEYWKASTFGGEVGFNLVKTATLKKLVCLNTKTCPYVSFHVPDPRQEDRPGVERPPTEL

[4] = target: T3, human COX-2 (Homo sapiens, UniProt P35354); assay: COX activity, commercial enzyme immunoassay kit
T3 sequence (P35354 18-604): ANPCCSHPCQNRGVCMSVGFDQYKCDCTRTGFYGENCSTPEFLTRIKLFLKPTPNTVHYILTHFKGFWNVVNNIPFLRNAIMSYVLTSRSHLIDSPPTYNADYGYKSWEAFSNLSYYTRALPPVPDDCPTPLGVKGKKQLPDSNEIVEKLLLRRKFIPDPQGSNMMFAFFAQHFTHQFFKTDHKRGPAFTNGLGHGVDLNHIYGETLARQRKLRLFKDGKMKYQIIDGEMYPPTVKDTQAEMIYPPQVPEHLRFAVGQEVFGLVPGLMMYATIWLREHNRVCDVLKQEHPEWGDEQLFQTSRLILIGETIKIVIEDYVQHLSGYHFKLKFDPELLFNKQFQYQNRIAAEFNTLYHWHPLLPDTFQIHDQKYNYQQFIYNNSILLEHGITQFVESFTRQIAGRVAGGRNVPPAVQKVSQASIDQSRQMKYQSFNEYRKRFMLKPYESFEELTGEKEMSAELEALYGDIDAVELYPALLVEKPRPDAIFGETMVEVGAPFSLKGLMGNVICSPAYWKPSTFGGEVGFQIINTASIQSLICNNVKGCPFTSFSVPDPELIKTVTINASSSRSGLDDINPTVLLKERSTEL

[5] = system: COX-2; conditions: oxygen electrode assay, arachidonic acid as substrate; cited from earlier work

For CC(C(=O)O)c1ccc2c(c1)[nH]c1ccc(Cl)cc12 (centres unmarked) [Compound 1, carprofen], the “ulcerogenic side effects compared to other NSAIDs” value [1] is listed as “reduced ulcerogenic side effects”.

With CC(C(=O)O)c1ccc2c(c1)[nH]c1ccccc12 (centres unmarked) [Compound 2, 2-(9H-carbazol-2-yl)propanoic acid] the IC50 [2] was 5 µM.

With COC(=O)C(C)c1ccc2c(c1)[nH]c1ccc(Cl)cc12 (centres unmarked) [Compound 3, Methyl 2-(6-chloro-9H-carbazol-2-yl)propanoate] the “COX-1 inhibition, result in words” value [3] was “lack of activity” and the “COX-2 inhibition, result in words” value [4] was “lack of activity”.

In the case of CC(C(=O)NCCO)c1ccc2c(c1)[nH]c1ccc(Cl)cc12 (centres unmarked) [Compound 4a, 2-(6-chloro-9H-carbazol-2-yl)-N-(2-hydroxyethyl)propanamide], the “COX-1 inhibition, result in words” value [3] is reported as “lack of activity” and the “COX-2 inhibition, result in words” value [4] is reported as “lack of activity”.

For CC(C(=O)Nc1ccccc1)c1ccc2c(c1)[nH]c1ccc(Cl)cc12 (centres unmarked) [Compound 4b, 2-(6-chloro-9H-carbazol-2-yl)-N-phenylpropanamide], the “COX-1 inhibition, result in words” value [3] was “lack of activity” and the “COX-2 inhibition, result in words” value [4] was “lack of activity”.

For CC(C(=O)O)c1ccc2c3cc(Cl)ccc3n(Cc3ccccc3)c2c1 (centres unmarked) [Compound 6b, 2-(9-benzyl-6-chloro-9H-carbazol-2-yl)propanoic acid], the “increase in FAAH potency compared to 1” value ([2]; ratio of FAAH IC50 values versus compound 1) was 3 fold.

In the case of COc1ccccc1Cn1c2ccc(Cl)cc2c2ccc(C(C)C(=O)O)cc21 (centres unmarked) [Compound 6g, 2-(6-chloro-9-(2-methoxybenzyl)-9H-carbazol-2-yl)propanoic acid], the “FAAH activity at 30 μM, result in words” value ([2]; 30 μM) is reported as “no activity”.

CCCCCCNC(=O)n1c2ccc(Cl)cc2c2ccc(C(C)C(=O)O)cc21 (centres unmarked) [Compound 10a, 2-(6-chloro-9-(hexylcarbamoyl)-9H-carbazol-2-yl)propanoic acid] gave an IC50 [2] of 3 µM.

For CNC(=O)n1c2ccc(Cl)cc2c2ccc(C(C)C(=O)O)cc21 (centres unmarked) [Compound 10b, 2-[6-chloro-9-(methylcarbamoyl)carbazol-2-yl]propanoic acid], the “FAAH inhibition, result in words” value [2] was “no inhibition”.

In the case of CCCCNC(=O)n1c2ccc(Cl)cc2c2ccc(C(C)C(=O)O)cc21 (centres unmarked) [Compound 10c, 2-(9-(butylcarbamoyl)-6-chloro-9H-carbazol-2-yl)propanoic acid], the “FAAH inhibition, result in words” value [2] is reported as “no inhibition”.

For CCCCCCOC(=O)n1c2ccc(Cl)cc2c2ccc(C(C)C(=O)O)cc21 (centres unmarked) [Compound 12, 2-(6-chloro-9-((hexyloxy)carbonyl)-9H-carbazol-2-yl)propanoic acid], the “weaker potency against FAAH compared to 10a” value ([2]; ratio of FAAH IC50 values versus 10a) was 10 fold.

In the case of CC(=O)n1c2ccc(Cl)cc2c2ccc(C(C)C(=O)O)cc21 (centres unmarked) [Compound 15a, 2-(9-acetyl-6-chloro-9H-carbazol-2-yl)propanoic acid], the “COX-1 inhibition, result in words” value [3] is reported as “did not show any inhibitory potency”, the “FAAH inhibition, result in words” value [2] is reported as “did not show any inhibitory potency” and the “COX-2 inhibition, result in words” value [4] is reported as “did not show any inhibitory potency”.

In the case of CC(C(=O)O)c1ccc2c3cc(Cl)ccc3n(C(=O)c3ccc(F)cc3)c2c1 (centres unmarked) [Compound 15d, 2-(6-chloro-9-(4-fluorobenzoyl)-9H-carbazol-2-yl)propanoic acid], the “COX-1 inhibition, result in words” value [3] is reported as “did not inhibit” and the “COX-2 inhibition, result in words” value [4] is reported as “did not inhibit”.

For COc1ccc(C(=O)n2c3ccc(Cl)cc3c3ccc(C(C)C(=O)O)cc32)cc1 (centres unmarked) [Compound 15e, 2-(6-chloro-9-(4-methoxybenzoyl)-9H-carbazol-2-yl)propanoic acid], the “COX-1 inhibition, result in words” value [3] was “did not inhibit” and the “COX-2 inhibition, result in words” value [4] was “did not inhibit”.

With CC(C(=O)O)c1ccc2c3cc(Cl)ccc3n(C(=O)c3cccc(Cl)c3)c2c1 (centres unmarked) [Compound 15f, 2-(6-chloro-9-(3-chlorobenzoyl)-9H-carbazol-2-yl)propanoic acid] the “COX-1 inhibition, result in words” value [3] was “lost” and the “COX-2 inhibition, result in words” value [4] was “lost”.

In the case of CC(C(=O)O)c1ccc2c3cc(Cl)ccc3n(C(=O)c3ccccc3Cl)c2c1 (centres unmarked) [Compound 15g, 2-(6-chloro-9-(2-chlorobenzoyl)-9H-carbazol-2-yl)propanoic acid], the “COX-1 inhibition, result in words” value [3] is reported as “lost” and the “COX-2 inhibition, result in words” value [4] is reported as “lost”.

With CC(C(=O)O)c1ccc2c3cc(Cl)ccc3n(C(=O)c3ccc(Cl)c(Cl)c3)c2c1 (centres unmarked) [Compound 15h, 2-(6-chloro-9-(3,4-dichlorobenzoyl)-9H-carbazol-2-yl)propanoic acid] the “COX-1 inhibition, result in words” value [3] was “total loss of activity”, the “FAAH inhibition, result in words” value [2] was “total loss of activity” and the “COX-2 inhibition, result in words” value [4] was “total loss of activity”.

For CC(C(=O)O)c1ccc2c3cc(Cl)ccc3n(C(=O)c3c[nH]cn3)c2c1 (centres unmarked) [Compound 15j, 2-(6-chloro-9-(1H-imidazole-4-carbonyl)-9H-carbazol-2-yl)propanoic acid hydrochloride], the IC50 [2] was 6 µM and the “COX-2 inhibition, result in words” value [4] was “no relevant inhibition”.

With CC(C(=O)O)c1ccc2c3cc(Cl)ccc3n(C(=O)c3cscn3)c2c1 (centres unmarked) [Compound 15k, 2-(6-chloro-9-(thiazole-4-carbonyl)-9H-carbazol-2-yl)propanoic acid] the “COX-1 inhibition, result in words” value [3] was “detrimental”, the “FAAH inhibition, result in words” value [2] was “detrimental” and the “COX-2 inhibition, result in words” value [4] was “detrimental”.

For Cc1cccnc1NC(=O)C(C)c1ccc(CC(C)C)cc1 (centres unmarked) [ibu-am5, N-(3-methylpyridin-2-yl)-2-(4-isobutylphenyl)-propionamide], the “COX-2 inhibition, result in words” value [5] is listed as “inactive”.

For CC(C)Cc1ccc(C(C)C(=O)O)cc1 (centres unmarked) [ibuprofen, reference compound], the “FAAH inhibition, result in words” value [2] was “very weak”.
